Patent publication US9206130B2, “Quinoline derivatives as AXL kinase inhibitors” (Max-Planck-Gesellschaft zur Förderung der Wissenschaften …, priority 2008, dated 2015)
pIC50: −log10 of the molar value.

Key:
[1] = target: T1, wild type AXL (wtAXL) receptor tyrosine kinase (Homo sapiens, UniProt P30530); experiment: NIH-3T3-AXL cellular tyrosine kinase assay (inhibition of AXL phosphorylation); type: cell-based; conditions: AXL phosphorylation in NIH-3T3-AXL (clone 22) cells, serum-depleted, 2 h with compound, immunoprecipitation / anti-phosphotyrosine blot
T1 construct: WtAXL cDNA was cloned into vector pLXSN(ESK) and transfected into Phoenix E packaging cells; expressed in transfected cells; host or cells: NIH3T3 N7 mouse fibroblasts, retrovirally infected (clone 22)
T1 sequence (P30530 26-894): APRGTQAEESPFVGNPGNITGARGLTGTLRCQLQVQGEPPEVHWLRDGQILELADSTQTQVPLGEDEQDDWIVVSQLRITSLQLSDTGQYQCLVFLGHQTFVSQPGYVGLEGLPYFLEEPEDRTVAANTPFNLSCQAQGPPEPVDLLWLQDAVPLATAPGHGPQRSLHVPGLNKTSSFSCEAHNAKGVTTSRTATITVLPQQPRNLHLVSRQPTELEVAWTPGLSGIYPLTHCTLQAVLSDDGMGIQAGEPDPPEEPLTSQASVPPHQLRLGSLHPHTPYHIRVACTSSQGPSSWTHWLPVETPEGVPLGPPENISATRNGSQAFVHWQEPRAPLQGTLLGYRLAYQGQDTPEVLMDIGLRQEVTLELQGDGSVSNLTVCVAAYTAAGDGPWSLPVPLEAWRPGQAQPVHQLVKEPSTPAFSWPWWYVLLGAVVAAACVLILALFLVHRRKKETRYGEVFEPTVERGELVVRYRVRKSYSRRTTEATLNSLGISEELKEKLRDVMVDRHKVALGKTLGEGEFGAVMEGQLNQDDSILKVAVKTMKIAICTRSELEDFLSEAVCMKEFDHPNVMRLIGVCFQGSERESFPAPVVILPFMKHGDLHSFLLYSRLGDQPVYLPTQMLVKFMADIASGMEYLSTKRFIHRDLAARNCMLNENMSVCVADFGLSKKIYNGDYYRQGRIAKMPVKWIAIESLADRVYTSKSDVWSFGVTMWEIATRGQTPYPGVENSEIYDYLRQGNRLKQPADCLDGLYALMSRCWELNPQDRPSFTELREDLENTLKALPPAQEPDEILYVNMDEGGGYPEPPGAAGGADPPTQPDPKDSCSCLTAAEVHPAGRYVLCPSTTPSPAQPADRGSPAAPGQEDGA
Method in brief: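 Compound inhibition of AXL autophosphorylation was read by 4G10 immunoblot after anti-AXL immunoprecipitation from lysates. Cells: NIH3T3 lines stably carrying retroviral wild-type human AXL, treated 2 h with compound dilution series.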

| SMILES | melting point [°C] | pIC50 [1] |
| --- | --- | --- |
| COc1cc2nccc(Oc3ccc(NS(=O)(=O)c4cccc(Oc5ccccc5)c4)cc3F)c2cc1OC [Example A98, N-[4-(6,7-Dimethoxy-quinolin-4-yloxy)-3-fluoro-phenyl]-3-phenoxy-benzenesulfonamide] | 197 to 199 | 6.13 |
| COc1cc2nccc(Oc3ccc(NS(=O)(=O)c4cc5ccccc5s4)cc3)c2cc1OC [Example A83, Benzo[b]thiophene-2-sulfonic acid [4-(6,7-dimethoxy-quinolin-4-yloxy)-phenyl]-amide] | 222 to 225 | < 5.52 |
| COc1cc2nccc(Oc3ccc(NS(=O)(=O)c4cccc(Oc5ccccc5)c4)cc3)c2cc1OC [Example A115, N-[4-(6,7-Dimethoxy-quinolin-4-yloxy)-phenyl]-3-phenoxy-benzenesulfonamide] | 172 to 174 | 5.90 |
| COc1cc2nccc(Oc3ccc(NS(=O)(=O)c4cc(Cl)cc(Cl)c4OC)cc3F)c2cc1OC [Example A106, 3,5-Dichloro-N-[4-(6,7-dimethoxy-quinolin-4-yloxy)-3-fluoro-phenyl]-2-methoxy-benzenesulfonamide] | 155 to 158 | 6.12 |
| COc1cc2nccc(Oc3ccc(NS(=O)(=O)c4cc(Cl)sc4Cl)c(F)c3)c2cc1OC [Example A18, 2,5-Dichloro-thiophene-3-sulfonic acid [4-(6,7-dimethoxy-quinolin-4-yloxy)-2-fluoro-phenyl]-amide] | 223 to 225 | 5.68 |
| COc1cc2nccc(Oc3ccc(NS(=O)(=O)c4ccc(-c5ccccc5)cc4)c(F)c3)c2cc1OC [Example A136, Biphenyl-4-sulfonic acid [4-(6,7-dimethoxy-quinolin-4-yloxy)-2-fluoro-phenyl]-amide] | 199 to 201 | < 5.00 |
| COc1cc2nccc(Oc3ccc(NS(=O)(=O)c4cccc5ccccc45)c(F)c3)c2cc1OC [Example A17, Naphthalene-1-sulfonic acid [4-(6,7-dimethoxy-quinolin-4-yloxy)-2-fluoro-phenyl]-amide] | 243 to 245 | 6.05 |
| COc1cc2nccc(Oc3ccc(NS(=O)(=O)c4cc(Cl)cc(Cl)c4OC)c(C)c3)c2cc1OC [Example A111, 3,5-Dichloro-N-[4-(6,7-dimethoxy-quinolin-4-yloxy)-2-methyl-phenyl]-2-methoxy-benzenesulfonamide] | 159 to 162 | < 5.52 |
| COc1cc2nccc(Oc3ccc(NS(=O)(=O)c4ccco4)c(F)c3)c2cc1OC [Example A22, Furan-2-sulfonic acid [4-(6,7-dimethoxy-quinolin-4-yloxy)-2-fluoro-phenyl]-amide] | 210 to 212 | 5.02 |
| COc1cc2nccc(Oc3ccc(NS(=O)(=O)c4ccccc4OC(F)(F)F)cc3F)c2cc1OC [Example A126, N-[4-(6,7-Dimethoxy-quinolin-4-yloxy)-3-fluoro-phenyl]-2-trifluoromethoxy-benzenesulfonamide] | 203 to 204 | 6.89 |
| COc1cc2nccc(Oc3ccc(NS(=O)(=O)c4cccc5ccccc45)cc3OC)c2cc1OC [Example A140, Naphthalene-1-sulfonic acid [4-(6,7-dimethoxy-quinolin-4-yloxy)-3-methoxy-phenyl]-amide] | 124 to 126 | < 5.00 |
| COc1cc2nccc(Oc3ccc(NS(=O)(=O)c4ccccc4OC(F)(F)F)cc3OC)c2cc1OC [Example A119, N-[4-(6,7-Dimethoxy-quinolin-4-yloxy)-3-methoxy-phenyl]-2-trifluoromethoxy-benzenesulfonamide] | 211 to 212 | < 5.52 |
| COc1cc2nccc(Oc3ccc(NS(=O)(=O)c4ccc(Cl)cc4F)cc3F)c2cc1OC [Example A110, 4-Chloro-N-[4-(6,7-dimethoxy-quinolin-4-yloxy)-3-fluoro-phenyl]-2-fluoro-benzenesulfonamide] | 99 to 101 | 5.93 |
| COc1cc2nccc(Oc3ccc(NS(=O)(=O)c4cc(C(F)(F)F)ccc4Br)c(F)c3)c2cc1OC [Example A46, 2-Bromo-N-[4-(6,7-dimethoxy-quinolin-4-yloxy)-2-fluoro-phenyl]-5-trifluoromethyl-benzenesulfonamide] | 227 to 230 | < 5.00 |
| COc1cc2nccc(Oc3ccc(NS(=O)(=O)c4cc(F)ccc4F)cc3OC)c2cc1OC [Example A139, N-[4-(6,7-Dimethoxy-quinolin-4-yloxy)-3-methoxy-phenyl]-2,5-difluoro-benzenesulfonamide] | 222 to 224 | 5.66 |
| CCOc1ccc(S(=O)(=O)Nc2ccc(Oc3ccnc4cc(OC)c(OC)cc34)cc2F)cc1C [Example A62, N-[4-(6,7-Dimethoxy-quinolin-4-yloxy)-2-fluoro-phenyl]-4-ethoxy-3-methyl-benzenesulfonamide] | 158 to 160 | 6.33 |
| COc1cc2nccc(Oc3ccc(NS(=O)(=O)c4ccc5c(c4)CC(=O)N5C)c(F)c3)c2cc1OC [Example A137, 1-Methyl-2-oxo-2,3-dihydro-1H-indole-5-sulfonic acid [4-(6,7-dimethoxy-quinolin-4-yloxy)-2-fluoro-phenyl]-amide] | 195 to 197 | < 5.00 |

Other lines, results leading:

| melting point [°C] | pIC50 [1] | SMILES |
| --- | --- | --- |
| 160 to 161 | < 5.00 | COC(=O)c1sccc1S(=O)(=O)Nc1ccc(Oc2cc(C)nc3ccc(F)cc23)cc1 [Example B17, 3-[4-(6-Fluoro-2-methyl-quinolin-4-yloxy)-phenylsulfamoyl]-thiophene-2-carboxylic acid methyl ester] |
| 185 to 187 | 7.16 | COc1cc2c(Oc3ccc(NS(=O)(=O)c4ccccc4OC(F)(F)F)cc3F)ccnc2cc1OCCN1CCOCC1 [Example D06, N-{3-Fluoro-4-[6-methoxy-7-(2-morpholin-4-yl-ethoxy)-quinolin-4-yloxy]-phenyl}-2-trifluoromethoxy-benzenesulfonamide] |
| 194 to 195 | > 6.00 | Cc1cc(Oc2ccc(NS(=O)(=O)c3cc(F)cc(F)c3)cc2)c2cc(F)ccc2n1 [Example B13, 3,5-Difluoro-N-[4-(6-fluoro-2-methyl-quinolin-4-yloxy)-phenyl]-benzenesulfonamid] |
| 192 to 193 | > 6.00 | COc1c(Cl)cc(Cl)cc1S(=O)(=O)Nc1ccc(Oc2cc(C)nc3ccc(F)cc23)cc1 [Example B11, 3,5-Dichloro-N-[4-(6-fluoro-2-methyl-quinolin-4-yloxy)-phenyl]-2-methoxy-benzenesulfonamide] |
| 150 to 151 | 5.10 | COc1cccc(S(=O)(=O)Nc2ccc(Oc3cc(C)nc4ccc(F)cc34)cc2F)c1 [Example B3, N-[2-Fluoro-4-(6-fluoro-2-methyl-quinolin-4-yloxy)-phenyl]-3-methoxy-benzenesulfonamide] |
| 144 to 146 | < 5.00 | COc1cc2nccc(Oc3ccc(NS(=O)(=O)c4csc5ccccc45)cc3OC)c2cc1OC [Example A144, Benzo[b]thiophene-3-sulfonic acid [4-(6,7-dimethoxy-quinolin-4-yloxy)-3-methoxy-phenyl]-amide] |
| 205 to 207 | < 5.00 | Cc1cc(Oc2ccc(NS(=O)(=O)c3ccc(F)c(Cl)c3)c(F)c2)c2cc(F)ccc2n1 [Example B5, 3-Chloro-4-fluoro-N-[2-fluoro-4-(6-fluoro-2-methyl-quinolin-4-yloxy)-phenyl]-benzenesulfonamide] |
| 196 to 198 | 6.75 | COc1cc2c(Oc3ccc(NS(=O)(=O)c4cccc(-c5ccccc5)c4)cc3F)ccnc2cc1OCCCN1CCC(C)CC1 [Example D29, Biphenyl-3-sulfonic acid (3-fluoro-4-{6-methoxy-7-[3-(4-methyl-piperidin-1-yl)-propoxy]-quinolin-4-yloxy}-phenyl)-amide] |
| 183 to 185 | < 5.00 | Cc1cc(Oc2ccc(NS(=O)(=O)c3ccccc3C(F)(F)F)c(F)c2)c2cccc(C(F)(F)F)c2n1 [Example C07, N-[2-Fluoro-4-(2-methyl-8-trifluoromethyl-quinolin-4-yloxy)-phenyl]-2-trifluoromethyl-benzenesulfonamid] |
